≈ marks a conversion by molar mass, not a printed value.
Columns and labels:
MRSA 252 [1] = assay: MIC, broth micro-dilution; assay type: cell-based, Staphylococcus aureus; conditions: Staphylococcus aureus, read-out: MIC
Summary of the method: (§1)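 Broth micro-dilution followed CLSI 2017: 1:2 antibiotic dilutions in TSB were inoculated at 5×10^5 CFU/mL. OD was recorded every 12 min over 18 h at 37 °C, and MIC was derived from sigmoidal dose-response fits.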

MSSA 476 [2] = assay: MIC, broth micro-dilution; assay type: cell-based, Staphylococcus aureus; conditions: Staphylococcus aureus, MSSA, read-out: MIC
Summary of the method: as §1

MRSA 252 [3] = assay: Disc diffusion (Kirby-Bauer), zone of inhibition; assay type: cell-based, Staphylococcus aureus; conditions: Staphylococcus aureus, 500 μg/mL, '/' = no zone, read-out: Zone of inhibition
Summary of the method: (§2)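 Kirby-Bauer per CLSI 2017: 1 in 200 dilutions of overnight cultures (LB for Gram-negatives, TSB for Gram-positives) spread on Mueller-Hinton agar. Discs loaded with 50 μL antibiotic were added and plates incubated 24 h at 37 °C. Zone of inhibition recorded.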

MSSA 476 [4] = assay: Disc diffusion (Kirby-Bauer), zone of inhibition; assay type: cell-based, Staphylococcus aureus; conditions: Staphylococcus aureus, 500 μg/mL, '/' = no zone, read-out: Zone of inhibition
Summary of the method: as §2

[5] = system: Staphylococcus aureus 15981; assay: Disc diffusion (Kirby-Bauer), zone of inhibition; assay type: cell-based; conditions: Staphylococcus aureus 15981; 500 μg/mL; '/' = no zone; read-out: Zone of inhibition
Summary of the method: as §2

[6] = system: various Staphylococcus aureus strains; assay: Disc diffusion, Staphylococcus aureus strain study; assay type: cell-based; conditions: Staphylococcus aureus, 500 μg/mL
Text: At this point in the study it was decided to perform a disc diffusion assay study on 50 S. aureus strains. […] Moreover, by employing a range of mutant strains of S. aureus with specific gene-deletions, it was believed that if particular strains were resistant to the lead compounds, it could provide insights on the likely protein target of the lead antibiotics. However, all six of the compounds utilized in this study were able to inhibit growth of all 50 strains of S. aureus assayed at the chosen concentration of 500 μg/mL concentration (Table 5).
E. coli DH5α, P. aeruginosa PA01 and the 53 S. aureus strains were recovered from frozen (−80° C.) glycerol (15% v/v) stocks on Lysogeny agar (LA)—Gram negative and trypticase soy agar (TSA)—plates at 37° C. for 24 hours. Single colonies were placed in either 3 mL Lysogeny broth (LB)—Gram negative or trypticase soy broth (TSB)—Gram positive and incubated at 37° C., 250 rpm for 18 hours.
The antibiotic activity was determined using a Kirby-Bauer method according to Clinical Standard Laboratory Institute (CSLI) Guidelines (2017). Briefly, 180 μL of a 1 in 200 dilution (in LB or TSB) of overnight cultures of selected Gram negative and Gram positive bacteria were applied to an agar plate containing the solid growth medium, Mueller-Hinton agar (MHA). Sterile discs, inoculated with 50 μL of antibiotic, were first added to the agar plate before the plates were incubated for 24 hours at 37° C. Following incubation, the zone of inhibition (if it existed) was recorded.

HEK293 cells = assay: Cytotoxicity assay, resazurin (CO-ADD)
Procedure: The cytotoxicity studies were performed by CO-ADD (The Community for Open Antimicrobial Drug Discovery), funded by the Wellcome trust (UK) and the University of Queensland, Australia.^(28) In this study, the compounds were screened against a human embryonic kidney cell line, HEK293, at a set concentration of 32 μg/mL.
DMEM supplemented with 10% FBS was used as growth media and the cells were incubated together with the compounds for 20 hours at 37° C. in 5% CO2.
Cytotoxicity (or cell viability) was measured by fluorescence, excitation: 560/10 nm, emission: 590/10 nm (F560/590), after addition of 5 μL of 25 μg/mL Resazurin (2.3 μg/mL final concentration) and after incubation for further 3 h at 37° C. in 5% CO2. The fluorescence intensity was measured using a Tecan M1000 Pro monochromator plate reader, using automatic gain calculation CC50 (concentration at 50% cytotoxicity) were calculated by curve fitting the inhibition values vs. log(concentration) using sigmoidal dose-response function, with variable fitting values for bottom, top and slope. The curve fitting was implemented using Pipeline Pilot's dose-response component.

red blood cells = assay: Hemolysis assay (CO-ADD); assay type: cell-based; conditions: 32 μg/mL highest concentration tested
Text: A problem often encountered by emerging drugs is hemolysis, also known as drug-induced immune hemolytic anemia.

Question: With `[C-]#[N+]/C=C/c1ccc(O)cc1/C=C/c1ccccc1` [Compound 36, 4-((E Z)-2-Isocyanovinyl)-3-((E)-styryl)phenol] as the molecule, how does the MIC (MRSA 252 [1]) read?
Answer: 15 µg/mL (≈ 60.7 µM)

Question: And the MIC (MSSA 476 [2])?
Answer: 12 µg/mL (≈ 48.5 µM)

Question: And the zone of inhibition at 500 µg/mL (MRSA 252 [3])?
Answer: 28 mm

Question: What about the zone of inhibition at 500 µg/mL (MSSA 476 [4]) of the same molecule?
Answer: 30 mm

Question: What about the zone of inhibition at 500 µg/mL [5] of the same molecule?
Answer: 30 mm

Question: What about the zone of inhibition at 500 µg/mL ([6]; strain ASARM 61) of the same molecule?
Answer: 29 mm

Question: What about the zone of inhibition at 500 µg/mL ([6]; strain ASARM 70) of the same molecule?
Answer: 28 mm

Question: What about the zone of inhibition at 500 µg/mL ([6]; strain ASARM 71) of the same molecule?
Answer: 26 mm

Question: And the zone of inhibition at 500 µg/mL ([6]; strain ASARM 72)?
Answer: 26 mm

Question: And the zone of inhibition at 500 µg/mL ([6]; strain ASARM 73)?
Answer: 29 mm

Question: And the zone of inhibition at 500 µg/mL ([6]; strain ASARM 75)?
Answer: 32 mm

Question: What about the zone of inhibition at 500 µg/mL ([6]; strain ASARM 76) of the same molecule?
Answer: 34 mm

Question: What about the zone of inhibition at 500 µg/mL ([6]; strain ASARM 77) of the same molecule?
Answer: 34 mm

Question: And the zone of inhibition at 500 µg/mL ([6]; strain ASARM 79)?
Answer: 29 mm

Question: And the zone of inhibition at 500 µg/mL ([6]; strain ASARM 80)?
Answer: 30 mm

Question: What about the zone of inhibition at 500 µg/mL ([6]; strain EOE 3) of the same molecule?
Answer: 30 mm

Question: What about the zone of inhibition at 500 µg/mL ([6]; strain EOE 23) of the same molecule?
Answer: 32 mm

Question: What about the zone of inhibition at 500 µg/mL ([6]; strain EOE 30) of the same molecule?
Answer: 34 mm

Question: What about the zone of inhibition at 500 µg/mL ([6]; strain EOE 35) of the same molecule?
Answer: 32 mm

Question: And the zone of inhibition at 500 µg/mL ([6]; strain EOE 41)?
Answer: 28 mm

Question: What about the zone of inhibition at 500 µg/mL ([6]; strain EOE 42) of the same molecule?
Answer: 26 mm

Question: And the zone of inhibition at 500 µg/mL ([6]; strain EOE 45)?
Answer: 28 mm

Question: What about the zone of inhibition at 500 µg/mL ([6]; strain EOE 52) of the same molecule?
Answer: 28 mm

Question: What about the zone of inhibition at 500 µg/mL ([6]; strain EOE 54) of the same molecule?
Answer: 29 mm

Question: And the zone of inhibition at 500 µg/mL ([6]; strain EOE 57)?
Answer: 28 mm

Question: And the zone of inhibition at 500 µg/mL ([6]; strain S139_7_7)?
Answer: 24 mm

Question: What about the zone of inhibition at 500 µg/mL ([6]; strain S197_1_1) of the same molecule?
Answer: 29 mm

Question: And the zone of inhibition at 500 µg/mL ([6]; strain S197_1_8)?
Answer: 28 mm

Question: What about the zone of inhibition at 500 µg/mL ([6]; strain S197_1_9) of the same molecule?
Answer: 28 mm

Question: What about the zone of inhibition at 500 µg/mL ([6]; strain S197_1_10) of the same molecule?
Answer: 28 mm

Question: And the zone of inhibition at 500 µg/mL ([6]; strain S295_1_1)?
Answer: 30 mm

Question: What about the zone of inhibition at 500 µg/mL ([6]; strain S295_1_2) of the same molecule?
Answer: 30 mm

Question: What about the zone of inhibition at 500 µg/mL ([6]; strain S295_1_3) of the same molecule?
Answer: 32 mm

Question: What about the zone of inhibition at 500 µg/mL ([6]; strain S364_5_11) of the same molecule?
Answer: 30 mm

Question: And the zone of inhibition at 500 µg/mL ([6]; strain S364_5_12)?
Answer: 28 mm

Question: And the zone of inhibition at 500 µg/mL ([6]; strain Sa_TPS 3026)?
Answer: 29 mm

Question: What about the zone of inhibition at 500 µg/mL ([6]; strain Sa_TPS 3072) of the same molecule?
Answer: 28 mm

Question: And the zone of inhibition at 500 µg/mL ([6]; strain Sa_TPS 3092)?
Answer: 29 mm

Question: And the zone of inhibition at 500 µg/mL ([6]; strain Sa_TPS 3097)?
Answer: 34 mm

Question: What about the zone of inhibition at 500 µg/mL ([6]; strain Sa_TPS 3103) of the same molecule?
Answer: 32 mm

Question: And the zone of inhibition at 500 µg/mL ([6]; strain Sa_TPS 3104)?
Answer: 32 mm

Question: And the zone of inhibition at 500 µg/mL ([6]; strain Sa_TPS 3106)?
Answer: 28 mm

Question: What about the zone of inhibition at 500 µg/mL ([6]; strain Sa_TPS 3118) of the same molecule?
Answer: 28 mm

Question: And the zone of inhibition at 500 µg/mL ([6]; strain Sa_TPS 3133)?
Answer: 28 mm

Question: And the zone of inhibition at 500 µg/mL ([6]; strain Sa_TPS 3134)?
Answer: 26 mm

Question: And the zone of inhibition at 500 µg/mL ([6]; strain USFL 008)?
Answer: 26 mm

Question: And the zone of inhibition at 500 µg/mL ([6]; strain USFL 009)?
Answer: 28 mm

Question: What about the zone of inhibition at 500 µg/mL ([6]; strain USFL 012) of the same molecule?
Answer: 28 mm

Question: What about the zone of inhibition at 500 µg/mL ([6]; strain USFL 016) of the same molecule?
Answer: 32 mm

Question: And the zone of inhibition at 500 µg/mL ([6]; strain USFL 018)?
Answer: 30 mm

Question: What about the zone of inhibition at 500 µg/mL ([6]; strain USFL 020) of the same molecule?
Answer: 30 mm

Question: What about the zone of inhibition at 500 µg/mL ([6]; strain USFL 021) of the same molecule?
Answer: 29 mm

Question: What about the zone of inhibition at 500 µg/mL ([6]; strain USFL 028) of the same molecule?
Answer: 28 mm

Question: And the zone of inhibition at 500 µg/mL ([6]; strain USFL 035)?
Answer: 28 mm

Question: And the zone of inhibition at 500 µg/mL ([6]; strain USFL 054)?
Answer: 28 mm

Question: What about the zone of inhibition at 500 µg/mL ([6]; strain not given) of the same molecule?
Answer: 22 mm

Question: And the “Concentration toxic to HEK 293 cells” value (HEK293 cells; HEK 293)?
Answer: >32000 ng/mL

Question: What about the “toxicity towards the HEK293 cell line (in words)” value (HEK293 cells; set concentration of 32 μg/mL) of the same molecule?
Answer: no toxicity

Question: And the “Hemolytic activity (HC10)” value (red blood cells)?
Answer: >32 µg/mL

— patent publication US20240246905A1 (University of Leicester, priority 2021, published 2024)
